{
  "source": "patent US9801880B2",
  "about": "“Use of kinase inhibitors” (BerGenBio AS, priority 2013, dated 2017)",
  "key": {"Ret (V804L)": {"target": "Ret (V804L) (Homo sapiens, UniProt P07949, V804L)", "sequence (P07949 29-1114 V804L)": "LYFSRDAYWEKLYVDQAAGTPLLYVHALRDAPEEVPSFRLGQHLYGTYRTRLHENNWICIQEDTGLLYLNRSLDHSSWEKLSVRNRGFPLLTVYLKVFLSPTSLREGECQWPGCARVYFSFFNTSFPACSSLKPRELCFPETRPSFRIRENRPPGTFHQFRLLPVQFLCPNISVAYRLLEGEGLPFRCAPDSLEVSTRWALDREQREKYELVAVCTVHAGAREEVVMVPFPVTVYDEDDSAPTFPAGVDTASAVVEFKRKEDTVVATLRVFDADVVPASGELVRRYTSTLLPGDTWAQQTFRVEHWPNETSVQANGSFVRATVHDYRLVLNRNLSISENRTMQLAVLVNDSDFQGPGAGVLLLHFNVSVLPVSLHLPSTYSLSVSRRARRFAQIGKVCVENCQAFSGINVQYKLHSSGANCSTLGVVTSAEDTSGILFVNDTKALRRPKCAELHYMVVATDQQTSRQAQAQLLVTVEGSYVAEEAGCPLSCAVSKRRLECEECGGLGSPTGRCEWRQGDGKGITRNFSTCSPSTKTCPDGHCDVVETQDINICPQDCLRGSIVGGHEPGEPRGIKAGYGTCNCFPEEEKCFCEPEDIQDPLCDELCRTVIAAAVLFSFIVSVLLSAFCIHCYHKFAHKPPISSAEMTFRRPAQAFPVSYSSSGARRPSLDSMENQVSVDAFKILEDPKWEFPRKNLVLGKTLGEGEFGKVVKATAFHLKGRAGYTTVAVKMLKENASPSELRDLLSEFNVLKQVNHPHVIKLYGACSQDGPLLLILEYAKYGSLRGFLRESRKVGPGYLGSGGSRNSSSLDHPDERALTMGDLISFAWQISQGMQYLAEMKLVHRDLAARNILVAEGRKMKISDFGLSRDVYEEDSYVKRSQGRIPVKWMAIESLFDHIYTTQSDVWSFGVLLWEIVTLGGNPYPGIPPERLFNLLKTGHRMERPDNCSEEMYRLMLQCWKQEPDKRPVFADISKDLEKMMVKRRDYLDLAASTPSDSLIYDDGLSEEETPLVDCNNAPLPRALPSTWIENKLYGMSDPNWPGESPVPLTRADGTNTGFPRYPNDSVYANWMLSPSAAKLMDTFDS", "assay": "KinaseProfiler kinase activity assay", "format": "biochemical", "design": "purchased EMD Millipore Corp. (KinaseProfiler service)", "settings": "ATP at Km", "from_the_text": "(§1) A summary is provided below."}, "Yes": {"target": "Yes (Homo sapiens, UniProt P07947)", "sequence (P07947 whole entry)": "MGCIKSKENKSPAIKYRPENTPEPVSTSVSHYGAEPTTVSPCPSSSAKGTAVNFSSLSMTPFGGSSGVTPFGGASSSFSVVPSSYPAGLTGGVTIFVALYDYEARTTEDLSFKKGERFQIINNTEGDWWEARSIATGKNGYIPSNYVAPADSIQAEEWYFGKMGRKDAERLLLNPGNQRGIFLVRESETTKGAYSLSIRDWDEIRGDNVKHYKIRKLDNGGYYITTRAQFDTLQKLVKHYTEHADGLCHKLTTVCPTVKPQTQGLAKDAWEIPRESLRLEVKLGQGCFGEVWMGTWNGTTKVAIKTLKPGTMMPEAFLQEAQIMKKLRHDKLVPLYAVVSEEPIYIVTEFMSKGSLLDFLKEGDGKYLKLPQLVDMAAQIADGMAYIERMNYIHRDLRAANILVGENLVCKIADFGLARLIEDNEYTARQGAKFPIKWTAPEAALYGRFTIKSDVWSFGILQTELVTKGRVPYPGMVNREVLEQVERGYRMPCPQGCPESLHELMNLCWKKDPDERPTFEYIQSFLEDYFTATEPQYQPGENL", "assay": "KinaseProfiler kinase activity assay", "format": "biochemical", "design": "purchased EMD Millipore Corp. (KinaseProfiler service)", "settings": "ATP at Km", "from_the_text": "as §1"}, "Wee1": {"target": "Wee1 (Homo sapiens, UniProt P30291)", "assay": "KinaseProfiler kinase activity assay", "format": "biochemical", "design": "purchased EMD Millipore Corp. (KinaseProfiler service)", "settings": "ATP at Km", "from_the_text": "as §1"}, "TEK": {"target": "TEK (Homo sapiens, UniProt Q02763)", "sequence (Q02763 23-1124)": "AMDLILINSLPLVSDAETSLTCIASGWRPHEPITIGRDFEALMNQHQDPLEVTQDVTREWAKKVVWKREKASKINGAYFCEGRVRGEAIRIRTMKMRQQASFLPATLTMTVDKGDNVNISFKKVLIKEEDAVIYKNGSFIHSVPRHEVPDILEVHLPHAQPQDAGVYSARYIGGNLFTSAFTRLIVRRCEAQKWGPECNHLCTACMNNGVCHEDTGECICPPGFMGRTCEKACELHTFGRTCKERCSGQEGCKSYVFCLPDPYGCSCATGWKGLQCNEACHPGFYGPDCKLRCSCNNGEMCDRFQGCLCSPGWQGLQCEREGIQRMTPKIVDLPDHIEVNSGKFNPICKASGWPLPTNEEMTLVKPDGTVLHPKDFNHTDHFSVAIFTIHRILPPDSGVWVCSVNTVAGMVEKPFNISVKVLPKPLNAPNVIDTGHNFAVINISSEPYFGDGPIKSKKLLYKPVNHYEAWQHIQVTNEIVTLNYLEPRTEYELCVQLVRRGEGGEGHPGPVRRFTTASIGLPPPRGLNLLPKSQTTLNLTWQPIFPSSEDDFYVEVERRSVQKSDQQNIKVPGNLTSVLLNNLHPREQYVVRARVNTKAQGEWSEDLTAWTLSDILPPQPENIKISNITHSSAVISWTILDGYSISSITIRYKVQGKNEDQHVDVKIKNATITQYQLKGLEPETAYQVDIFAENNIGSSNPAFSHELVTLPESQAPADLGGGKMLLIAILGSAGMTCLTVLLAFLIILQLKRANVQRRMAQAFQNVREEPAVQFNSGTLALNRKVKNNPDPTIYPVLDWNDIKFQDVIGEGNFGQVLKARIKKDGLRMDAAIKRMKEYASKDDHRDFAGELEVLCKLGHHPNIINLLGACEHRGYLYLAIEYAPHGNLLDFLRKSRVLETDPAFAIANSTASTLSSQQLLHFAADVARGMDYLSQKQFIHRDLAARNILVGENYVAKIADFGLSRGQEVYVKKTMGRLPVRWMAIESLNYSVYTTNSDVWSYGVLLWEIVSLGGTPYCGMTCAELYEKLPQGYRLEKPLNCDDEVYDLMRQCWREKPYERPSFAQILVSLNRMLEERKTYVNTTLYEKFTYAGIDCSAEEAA", "assay": "KinaseProfiler kinase activity assay", "format": "biochemical", "design": "purchased EMD Millipore Corp. (KinaseProfiler service)", "settings": "ATP at Km", "from_the_text": "as §1"}, "Flt3 (D835Y)": {"target": "Flt3 (D835Y) (Homo sapiens, UniProt P36888, D835Y)", "assay": "KinaseProfiler kinase activity assay", "format": "biochemical", "design": "purchased EMD Millipore Corp. (KinaseProfiler service)", "settings": "ATP at Km", "from_the_text": "as §1"}, "Stk10": {"target": "Stk10 (Homo sapiens, UniProt O94804)", "sequence (O94804 whole entry)": "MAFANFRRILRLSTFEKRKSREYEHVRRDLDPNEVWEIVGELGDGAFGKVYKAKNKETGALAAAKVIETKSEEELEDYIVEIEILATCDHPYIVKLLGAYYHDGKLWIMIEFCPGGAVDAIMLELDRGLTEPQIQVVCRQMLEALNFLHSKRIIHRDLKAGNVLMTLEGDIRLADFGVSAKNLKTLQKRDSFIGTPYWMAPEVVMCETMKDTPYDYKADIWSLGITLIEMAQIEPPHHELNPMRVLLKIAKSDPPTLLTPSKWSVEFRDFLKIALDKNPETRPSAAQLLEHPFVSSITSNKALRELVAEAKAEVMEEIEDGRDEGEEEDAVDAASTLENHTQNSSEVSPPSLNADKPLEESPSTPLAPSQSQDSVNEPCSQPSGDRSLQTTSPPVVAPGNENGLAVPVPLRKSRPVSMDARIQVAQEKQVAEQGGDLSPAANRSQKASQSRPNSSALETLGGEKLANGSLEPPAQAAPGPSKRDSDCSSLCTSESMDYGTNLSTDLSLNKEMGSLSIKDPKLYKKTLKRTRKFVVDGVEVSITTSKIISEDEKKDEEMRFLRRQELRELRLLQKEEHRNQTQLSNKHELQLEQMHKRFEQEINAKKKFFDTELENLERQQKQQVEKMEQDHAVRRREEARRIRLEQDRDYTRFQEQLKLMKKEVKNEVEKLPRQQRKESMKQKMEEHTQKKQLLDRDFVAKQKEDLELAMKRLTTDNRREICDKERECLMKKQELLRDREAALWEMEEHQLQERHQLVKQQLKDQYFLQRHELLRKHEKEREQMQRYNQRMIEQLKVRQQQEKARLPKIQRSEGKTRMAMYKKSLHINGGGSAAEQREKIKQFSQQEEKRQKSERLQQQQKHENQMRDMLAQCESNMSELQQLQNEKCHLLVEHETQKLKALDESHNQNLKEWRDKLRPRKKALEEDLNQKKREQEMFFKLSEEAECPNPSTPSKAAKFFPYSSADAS", "assay": "KinaseProfiler kinase activity assay", "format": "biochemical", "design": "purchased EMD Millipore Corp. (KinaseProfiler service)", "settings": "Stk10 (LOK); ATP at Km", "from_the_text": "as §1"}, "Flt4": {"target": "Flt4 (Homo sapiens, UniProt P35916)", "assay": "KinaseProfiler kinase activity assay", "format": "biochemical", "design": "purchased EMD Millipore Corp. (KinaseProfiler service)", "settings": "ATP at Km", "from_the_text": "as §1"}, "Flt3": {"target": "Flt3 (Homo sapiens, UniProt P36888)", "assay": "KinaseProfiler kinase activity assay", "format": "biochemical", "design": "purchased EMD Millipore Corp. (KinaseProfiler service)", "settings": "Flt3 wild-type; ATP at Km", "from_the_text": "as §1"}, "Ret": {"target": "Ret (Homo sapiens, UniProt P07949)", "sequence (P07949 29-1114)": "as the sequence (P07949 29-1114 V804L) above, with L776V counted along it", "assay": "KinaseProfiler kinase activity assay", "format": "biochemical", "design": "purchased EMD Millipore Corp. (KinaseProfiler service)", "settings": "ATP at Km", "from_the_text": "as §1"}, "Ret (V804M)": {"target": "Ret (V804M) (Homo sapiens, UniProt P07949, V804M)", "sequence (P07949 29-1114 V804M)": "as the sequence (P07949 29-1114 V804L) above, with L776M counted along it", "assay": "KinaseProfiler kinase activity assay", "format": "biochemical", "design": "purchased EMD Millipore Corp. (KinaseProfiler service)", "settings": "ATP at Km", "from_the_text": "as §1"}, "Flt1": {"target": "Flt1 (Homo sapiens, UniProt P17948)", "sequence (P17948 27-1338)": "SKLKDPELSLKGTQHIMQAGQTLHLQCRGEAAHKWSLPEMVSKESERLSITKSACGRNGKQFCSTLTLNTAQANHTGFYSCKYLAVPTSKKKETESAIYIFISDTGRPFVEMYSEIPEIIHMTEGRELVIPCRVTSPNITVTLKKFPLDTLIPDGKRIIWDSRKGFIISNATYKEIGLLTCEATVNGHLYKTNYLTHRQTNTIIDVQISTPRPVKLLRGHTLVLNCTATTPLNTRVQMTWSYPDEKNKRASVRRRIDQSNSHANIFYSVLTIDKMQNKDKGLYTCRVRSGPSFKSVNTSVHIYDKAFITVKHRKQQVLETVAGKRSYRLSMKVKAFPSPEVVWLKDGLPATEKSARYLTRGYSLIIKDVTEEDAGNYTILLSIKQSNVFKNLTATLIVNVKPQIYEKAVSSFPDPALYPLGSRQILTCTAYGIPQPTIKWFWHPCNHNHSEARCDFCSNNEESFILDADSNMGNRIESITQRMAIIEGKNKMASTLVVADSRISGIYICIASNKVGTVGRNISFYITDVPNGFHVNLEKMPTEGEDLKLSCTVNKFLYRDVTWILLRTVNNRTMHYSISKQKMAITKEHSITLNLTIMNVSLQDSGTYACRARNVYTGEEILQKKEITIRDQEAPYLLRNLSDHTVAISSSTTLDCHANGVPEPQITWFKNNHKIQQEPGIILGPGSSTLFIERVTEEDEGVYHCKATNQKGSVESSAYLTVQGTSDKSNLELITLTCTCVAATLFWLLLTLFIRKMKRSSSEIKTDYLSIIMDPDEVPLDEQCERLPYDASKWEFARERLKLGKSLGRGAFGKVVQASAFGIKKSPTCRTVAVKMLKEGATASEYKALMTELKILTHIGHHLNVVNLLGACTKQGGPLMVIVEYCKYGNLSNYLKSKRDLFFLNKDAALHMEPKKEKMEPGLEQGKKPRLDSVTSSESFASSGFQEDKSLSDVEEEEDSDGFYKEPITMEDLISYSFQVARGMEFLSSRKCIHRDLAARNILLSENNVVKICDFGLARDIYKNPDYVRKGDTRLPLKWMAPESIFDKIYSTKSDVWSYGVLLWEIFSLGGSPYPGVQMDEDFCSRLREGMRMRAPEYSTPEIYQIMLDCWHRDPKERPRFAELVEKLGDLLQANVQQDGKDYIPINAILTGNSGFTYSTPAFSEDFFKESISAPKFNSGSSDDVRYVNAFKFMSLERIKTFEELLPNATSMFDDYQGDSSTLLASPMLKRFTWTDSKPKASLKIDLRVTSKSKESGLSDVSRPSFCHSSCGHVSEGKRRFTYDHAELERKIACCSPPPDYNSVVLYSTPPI", "assay": "KinaseProfiler kinase activity assay", "format": "biochemical", "design": "purchased EMD Millipore Corp. (KinaseProfiler service)", "settings": "ATP at Km", "from_the_text": "as §1"}, "[1]": {"test_system": "Ba/F3 cells expressing T315I mutated Bcr-Abl1 fusion protein", "assay": "WST-1 cell viability, Ba/F3 cells expressing Bcr-Abl1 T315I", "format": "cell-based", "settings": "Mus musculus, BaF3, 48 hours, serum free, read-out: IB50 cell viability", "method": "(§2) Ba/F3 cells either stably overexpressing Bcr-Abl1 (A) or the mutant Bcr-Abl1 T315I (B) were cultured overnight in serum free RPMI-1640 media supplemented with 2 mM glutamine, 100 U/mL penicillin and 100 μg/mL streptomycin (Sigma-Aldrich). The following day, cells were plated in a 96-well plate with each well containing 2000 cells in a volume of 100 μl serum free RMPI media. […] The 96 well plates were incubated for 48 hours, and cell viability was measured in a WST-1 assay (Roche). Briefly, 5 μl WST-1 solution was added to each well and the 96-well plate was incubated for another 2 hours. The readout was performed in an ELSA reader at 480 nm. (measure)/620 nm (reference). Subsequent data analysis was performed with Microsoft Excel 2003 and GraphPad Prism 4.0."}, "c-Kit (D816V)": {"target": "c-Kit (D816V) (Homo sapiens, UniProt P10721, D816V)", "assay": "KinaseProfiler kinase activity assay", "format": "biochemical", "design": "purchased EMD Millipore Corp. (KinaseProfiler service)", "procedure": "KinaseProfiler™ assays (EMD Millipore Corp. Billerica, Mass., USA) are radioligand binding assays with purified or partially-purified human kinases. Most of the KinaseProfiler™ assays are conducted in 20 mM MOPS, 1 mM EDTA, 0.01% Brij-35, 5% Glycerol, 0.1% b-mercaptoethanol, 1 mg/mL BSA. The assay involves the transfer of ^32P from γ-^32P-ATP to the target peptide, followed by washing and trapping of the labeled peptide on a filter. The concentration of γ-^32P-ATP used was at the established Km for ATP."}, "BaF3/wt-BCR-ABL cells": {"test_system": "BaF3/wt-BCR-ABL cells", "assay": "Subcutaneous BaF3/wt-BCR-ABL tumor model", "format": "in vivo", "settings": "25 (or 50) mg/kg twice per day via gavage; NSG mice", "method": "(§3) 6- to 8-week-old male NSG mice were implanted subcutaneously with 1×10^7 BaF3/wt-BCR-ABL or 1×10^7 BaF3/T315I cells per mouse into the right flank. Five days after implantation mice were randomized into groups with a mean volume of approximately 100 mm^3. […] Tumor volume was measured every 2-3 days. Animals were sacrificed at day 12 and tumors embedded for histology."}, "[2]": {"test_system": "Flt3 mutations D835H, D835Y, K663Q, and A829P", "assay": "Inhibition of Flt3 mutations (biochemical assays, format not stated)", "from_the_text": "as §1"}, "[3]": {"test_system": "Ba/F3 cells expressing the non-mutated Bcr-Abl1 kinase", "assay": "WST-1 cell viability, Ba/F3 cells expressing Bcr-Abl1", "format": "cell-based", "settings": "Mus musculus, BaF3, 48 hours, serum free", "method": "as §2"}, "BaF3/T315I cells": {"test_system": "BaF3/T315I cells", "assay": "Subcutaneous BaF3/T315I tumor model", "format": "in vivo", "settings": "25 (or 50) mg/kg twice per day via gavage; NSG mice", "method": "as §3"}, "[4]": {"test_system": "T315I-mutated BCR-ABL1 transduced bone marrow cells", "assay": "Preclinical CML model, bone marrow cells transduced with T315I-mutated BCR-ABL1", "format": "in vivo", "settings": "25 (or 50) mg/Kg twice per day; Balb/c mice", "method": "6- to 8 week old male Balb/c mice were sublethally irradiated and i.v. injected with 0.5×10^6 retroviral transduced BM cells (pMSCV_gfp/BCR-ABL_T315I).\nBone marrow donor mice: To harvest donor bone marrow mice were injected subcutaneously with 5-FU (150 mg/kg mice). The bone marrow was isolated five days later and transduced with the desired retroviral construct. [Daley, G. Q., R. A. Van Etten, and D. Baltimore, Induction of chronic myelogenous leukemia in mice by the P210bcr/abl gene of the Philadelphia chromosome. Science, 1990. 247(4944): p. 824-30.]"}},
  "note": "Values joined by “and” are separate entries in the source; they are usually repeats but may differ in a detail not shown here. Identical values can stand only once.",
  "data": [
    {"smiles": "Nc1nc(Nc2ccc3c(c2)CC[C@@H](N2CCCC2)CC3)nn1-c1cc2c(nn1)-c1ccccc1CCC2", "note": "[Compound A, 1-(6,7-dihydro-5H-benzo[6,7]cyclohepta[1,2-c]pyridazine-3-yl)-N^3-(7-(S)-(pyrrolidin-1-yl)-6,7,8,9-tetrahydro-5H-benzo[7]annulene-2-yl)-1H-1,2,4-triazole-3,5-diamine]", "values": [
      {"measurement": "IC50", "setting": "Ret (V804L)", "result": 11, "unit": "nM"},
      {"measurement": "IC50", "setting": "Yes", "result": 43, "unit": "nM"},
      {"measurement": "IC50", "setting": "Wee1", "result": 32, "unit": "nM"},
      {"measurement": "IC50", "setting": "TEK", "result": "30 nM and 41 nM"},
      {"measurement": "IC50", "setting": "Flt3 (D835Y)", "result": 13, "unit": "nM"},
      {"measurement": "IC50", "setting": "Stk10", "result": 22, "unit": "nM"},
      {"measurement": "IC50", "setting": "Flt4", "result": 41, "unit": "nM"},
      {"measurement": "IC50", "setting": "Flt3", "result": 122, "unit": "nM"},
      {"measurement": "IC50", "setting": "Ret", "result": "38 nM and 22 nM"},
      {"measurement": "IC50", "setting": "Ret (V804M)", "result": 21, "unit": "nM"},
      {"measurement": "IC50", "setting": "Flt1", "result": 40, "unit": "nM"},
      {"measurement": "IC50", "setting": "[1]", "result": 570, "unit": "nM"},
      {"measurement": "IC50", "setting": "c-Kit (D816V)", "result": 177, "unit": "nM"},
      {"measurement": "inhibition of wild type CML in vivo (tumor volume)", "setting": "BaF3/wt-BCR-ABL cells", "result": "potentially inhibits"},
      {"measurement": "inhibition range, Flt3 mutations", "setting": "[2]", "result": "8 to 29", "unit": "nM"},
      {"measurement": "IC50", "setting": "[3]", "result": 796, "unit": "nM"},
      {"measurement": "inhibition of T315I mutated CML in vivo (tumor volume)", "setting": "BaF3/T315I cells", "result": "potentially inhibits"},
      {"measurement": "leukemia cell burden", "setting": "[4]", "result": "reduced leukemia cell burden"}
    ]}
  ]
}
